Measurements: US20060190192A1, “Databases for assessing nucleic acids” (Medical College of Ohio, priority 2005, published 2006)

Experiments:
[1] = system: cytochrome p450 (CYP) IAI gene; test: Northern analysis of CYPIAI gene expression in β-napthoflavone-exposed BEP2D cells; assay type: cell-based, human; conditions: β-napthoflavone 10 μM vs 0.1% DMSO control, 32P-labeled CYPIAI cDNA probe
Protocol: (§1) In a second set of experiments, multiplex competitive reverse transcriptase polymerase chain reaction (MC RT-PCR) with competitive templates were prepared by the Celi method to evaluate the cytochrome p450 (CYP) IAI gene in β-napthoflavone-exposed BEP2D cells. The induction of CYPIAI gene expression was evaluated using both MC RT-PCR with Celi competitive templates, and Northern analysis. Competitive templates were prepared for both the CYPIAI and GAPDH genes. The primers used to prepare the competitive template for GAPDH were: […]
RNA from BEP2D cells incubated for varying times with β-napthoflavone (10 μM) was either electrophoresed on a 1% LE formaldehyde denaturing gel for Northern analysis or MC RT-PCR amplified, as described above. For Northern analysis, following transfer of the RNA to GeneScreen, the filters were hybridized with ^32P-labeled CYPIAI cDNA.
FIG. 36A illustrates Northern analysis of RNA obtained from BEP2D cells that were treated with 0.1% DMSO as a control, or, β-napthoflavone in an effort to induce cytochrome p450 IA1 (CYPIA1). FIG. 36B illustrates DNA PCR-amplified from serial dilutions of cDNA from the same cells used in FIG. 36SA. The cDNA was co-amplified in the presence of competitive templates for GAPDH and CYPIAI, according to some embodiments of the instant invention.

[2] = system: cytochrome p450 (CYP) IAI gene; test: MC RT-PCR with Celi competitive templates: induction of CYPIAI gene expression in β-napthoflavone-exposed BEP2D cells; assay type: cell-based, human; conditions: β-napthoflavone 10 μM, control 0.1% DMSO, cDNA loading matched by GAPDH native/competitive template bands
Protocol: as §1
The PCR amplification conditions were the same as described for experiments using the competitive templates prepared for GAPDH and GSHPx by the Higuchi method except the annealing temperature was 55 degrees centigrade and the amplification was carried out for 38 cycles.
Because the native and competitive templates separate without prior restriction endonuclease digestion, samples were taken directly from the PCR reaction tube and applied to ethidium bromide stained 3% Nusieve, 1% LE agarose gels. It was then possible to quantify the products by taking a negative photograph of the gel using Polaroid 665 positive/negative instant film, subjecting the negative photograph to densitometry. […]

O=c1cc(-c2ccccc2)oc2ccc3ccccc3c12 [β-napthoflavone]
gene expression of the CYPIAI gene [1]: increase
band representing the native CYPIAI gene, exposed cells compared to control cells [2]: much more strongly represented
